Experimental findings from US11584744B2 (UNIVERSITY OF WASHINGTON, priority 2017, dated 2023) are described below.

Test [1] relates to S. aureus MRSA (ATCC 33591). Nature of the test: MIC susceptibility testing. The format is cell-based, Staphylococcus aureus. To be noted: MRSA ATCC33591; for MIC: Staphylococcus aureus, read-out: (G) MRSA (ATCC33591) MIC. Summed up:
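CLSI broth microdilution in triplicate, 5×10^5 CFU/mL final, ≤0.5% DMSO; MHB for S. aureus, CA-MHB for E. coli and E. faecium, CA-MHB plus 3% laked horse blood for S. pyogenes (5% CO2).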

Test [2] concerns S. aureus MSSA (ATCC 29213). Briefly: MIC susceptibility testing. The format is cell-based, Staphylococcus aureus. Conditions: S. aureus ATCC 29213; for MIC: Staphylococcus aureus, read-out: (F) S. aureus (ATCC 29213) MIC.
In test [3] the target is T1, MetRS (T. brucei) (Trypanosoma brucei brucei, UniProt Q38C91).
T1 sequence (Q38C91 1-773): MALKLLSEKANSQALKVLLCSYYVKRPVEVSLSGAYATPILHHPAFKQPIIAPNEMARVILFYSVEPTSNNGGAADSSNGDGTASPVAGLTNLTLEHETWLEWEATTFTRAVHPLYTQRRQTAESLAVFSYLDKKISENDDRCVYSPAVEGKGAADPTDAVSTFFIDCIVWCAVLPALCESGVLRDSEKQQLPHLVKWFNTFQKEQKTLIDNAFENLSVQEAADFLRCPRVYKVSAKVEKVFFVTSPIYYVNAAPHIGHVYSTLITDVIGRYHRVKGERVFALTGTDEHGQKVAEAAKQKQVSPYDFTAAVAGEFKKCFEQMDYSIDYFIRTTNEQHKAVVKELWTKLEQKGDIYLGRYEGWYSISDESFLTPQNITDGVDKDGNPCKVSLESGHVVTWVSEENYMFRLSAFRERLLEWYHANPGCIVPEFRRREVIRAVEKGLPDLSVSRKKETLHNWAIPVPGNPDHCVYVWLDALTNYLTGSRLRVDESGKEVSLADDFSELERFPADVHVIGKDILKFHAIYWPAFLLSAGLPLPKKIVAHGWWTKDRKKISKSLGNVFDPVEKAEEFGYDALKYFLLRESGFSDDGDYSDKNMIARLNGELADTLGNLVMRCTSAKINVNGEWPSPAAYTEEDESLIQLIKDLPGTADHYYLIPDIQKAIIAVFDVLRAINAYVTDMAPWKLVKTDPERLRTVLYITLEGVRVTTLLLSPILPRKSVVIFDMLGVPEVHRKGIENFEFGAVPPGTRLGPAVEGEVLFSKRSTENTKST
Briefly: MetRS (T. brucei) enzyme inhibition. It is filed as biochemical.

Test [4] addresses MetRS (C. parvum) (Cryptosporidium parvum, UniProt Q5CVN0). Nature of the test: MetRS (C. parvum) enzyme inhibition. It is filed as biochemical. To be noted: read-out: (C) MetRS (C. parvum) IC50.
Test [5] deals with T. brucei. Briefly: T. brucei growth inhibition. The format is cell-based, Trypanosoma brucei. To be noted: read-out: (D) T. brucei EC50.
Test [6] concerns T. cruzi. Nature of the test: T. cruzi growth inhibition. To be noted: read-out: (E) T. cruzi EC50. It is filed as cell-based, Trypanosoma cruzi.
The test system of test [7] is C. parvum. Briefly: C. parvum growth inhibition. The format is cell-based, Cryptosporidium parvum. To be noted: read-out: (J) C. parvum EC50.
Test [8] relates to E. faecium VRE (ATCC 51559). Nature of the test: MIC susceptibility testing. The format is cell-based, Enterococcus faecium. Conditions: E. faecium ATCC 51559; for MIC: Enterococcus faecium, read-out: (I) E. faecium (ATCC 51559) MIC. From the text: Media and culture conditions. Mueller Hinton broth (MHB), cation adjusted Mueller Hinton broth (CA-MHB), and Brain Heart Infusion broth (BHI) were purchased from Becton Dickinson (Franklin Lakes, N.J.). Tryptic soy agar (TSA) plates, TSA with 5% sheep blood plates, and CA-MHB with 3% laked horse blood were purchased from Remel (San Diego, Calif.). MHB was used to assay all Staphylococcus aureus strains. CA-MHB was used for Staphylococcus epidermidis, Enterococcus faecalis, Enterococcus faecium, Escherichia coli, and Pseudomonas aeruginosa. CA-MHB supplemented with 3% laked horse blood was used for Streptococcus pneumoniae and Streptococcus pyogenes. Staphylococcus, Enterococcus, Escherichia, and Pseudomonas strains were cultured at 37° C. with ambient air. Streptococcus strains were cultured in 37° C. with 5% CO2. Separate conditions for radiolabeled precursor uptake assays are described below.
Susceptibility testing: Minimum inhibitory concentration (MIC) determinations were performed in triplicate in 96-well round bottom microtiter plates (Corning, Corning N.Y.) as described by the Clinical and Laboratory Standards Institute (CLSI). Serial two-fold dilutions of compounds were added to plates in 50 μL volumes. An additional 50 μL of media containing bacterial cells (1×10^6 CFUs/mL) was then added to each well. Maximum DMSO concentrations were 0.5%. Plates were incubated at 37° C. for at least 18 h before reading the susceptibility result by optical absorbance (OD600) using a BioTek ELx800. The lowest concentration causing ≥90% growth inhibition compared to the untreated control was recorded as the MIC (and also corresponded to the visual MIC). MICs were measured at least twice and the higher value (if different) was recorded herein.

≈ marks a conversion by molar mass, not a printed value. Where “and” joins values, the source holds several entries; their conditions need not be identical. Equal entries are not always repeated. Where two headings read alike, the source gives them in different places.

Chain of MetRS (C. parvum) (Q5CVN0 entry or part of it): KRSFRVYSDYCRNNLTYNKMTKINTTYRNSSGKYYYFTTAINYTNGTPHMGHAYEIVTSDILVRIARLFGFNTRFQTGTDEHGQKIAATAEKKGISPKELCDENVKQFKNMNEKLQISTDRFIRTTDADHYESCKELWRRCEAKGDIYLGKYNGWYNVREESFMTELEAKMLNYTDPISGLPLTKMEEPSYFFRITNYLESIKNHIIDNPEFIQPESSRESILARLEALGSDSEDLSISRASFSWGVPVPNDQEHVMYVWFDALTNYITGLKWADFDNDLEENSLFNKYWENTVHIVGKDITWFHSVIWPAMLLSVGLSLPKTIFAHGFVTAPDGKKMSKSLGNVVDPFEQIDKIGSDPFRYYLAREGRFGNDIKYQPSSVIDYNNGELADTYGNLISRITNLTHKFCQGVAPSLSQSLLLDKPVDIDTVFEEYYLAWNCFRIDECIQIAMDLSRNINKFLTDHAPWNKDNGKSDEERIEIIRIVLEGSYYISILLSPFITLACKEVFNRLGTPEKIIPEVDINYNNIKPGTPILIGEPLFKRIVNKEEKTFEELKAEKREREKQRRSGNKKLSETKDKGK

Take `O=c1n(Cc2nc3nc(F)ccc3[nH]2)cc(Cc2ccc(Cl)cc2Cl)n1CCO` [Compound 2086, 4-[(2,4-dichlorophenyl)-methyl]-1-({5-fluoro-1H-imidazo[4,5-b]pyridin-2-yl}methyl)-3-(2-hydroxyethyl)-2,3-dihydro-1H-imidazol-2-one]: the MIC was greater than 2.5 µg/mL in test [1] and 0.964 µg/mL (≈ 2.21 µM) in test [2]. Moreover, the figures for the IC50 in test [3] and in test [4] were less than 40 nM and 41.2 nM, respectively. The EC50 in test [5] (Trypanosoma brucei) is 5.94 nM; in test [5], 7.64 nM; in test [6] (Trypanosoma cruzi) it was 552 nM.

For the molecule `CCn1c(Cc2ccc(Cl)cc2Cl)cn(Cc2cc3nc(F)ccc3[nH]2)c1=O` [Compound 2112, 5-(2,4-dichlorobenzyl)-1-ethyl-3-((5-fluoro-1H-pyrrolo[3,2-b]pyridin-2-yl)methyl)-1H-imidazol-2(3H)-one], the MIC in test [1] amounted to 0.405 µg/mL (≈ 0.966 µM); in test [2], 0.254 µg/mL (≈ 0.606 µM). Further, the IC50 in test [3] and in test [4] was less than 40 nM in each case. Further, the EC50 in test [5] (Trypanosoma brucei) was 9.56 nM; in test [6] (Trypanosoma cruzi), 176 nM; in test [7] (Cryptosporidium parvum) it was 620 nM.

For `COc1ccc(-c2ccc(N)c3nc(Cc4nc5nc(Cl)ccc5[nH]4)cn23)c(Cl)c1` [Compound 2171, 2-({5-chloro-1H-imidazo[4,5-b]pyridin-2-yl}methyl)-5-(2-chloro-4-methoxyphenyl)imidazo[1,2-a]pyridin-8-amine], the MIC in test [1] came out at 1.87 µg/mL (≈ 4.26 µM); in test [2] it was 1.16 µg/mL (≈ 2.64 µM). Moreover, the IC50 in test [3] is less than 40 nM; in test [4] it was 75.3 nM. Moreover, the EC50 in test [5] (Trypanosoma brucei) is 29 nM; in test [6] (Trypanosoma cruzi), 302 nM.

As for `COc1ccc(-c2cccc3c2CN(Cc2nc4c(N)ncnc4[nH]2)C3=O)c(Cl)c1` [Compound 2239, 2-((6-amino-9H-purin-8-yl)methyl)-4-(2-chloro-4-methoxyphenyl)isoindolin-1-one], the minimal inhibitory concentration (MIC) in test [1] and in test [2] was greater than 2 µg/mL each time. Also, the IC50 in test [3] and in test [4] was less than 40 nM each time. The EC50 in test [5] (Trypanosoma brucei) is 267 nM; in test [6] (Trypanosoma cruzi), 3880 nM; in test [7] (Cryptosporidium parvum), greater than 2000 nM.

With `COc1ccc(-c2cccc3nn(Cc4nc5nc(Cl)ccc5[nH]4)cc23)c(Cl)c1` [Compound 2245, 2-({5-chloro-1H-imidazo[4,5-b]pyridin-2-yl}methyl)-4-(2-chloro-4-methoxyphenyl)-2H-indazole], the results for the MIC in test [1] and in test [2] were 0.0378 µg/mL (≈ 0.0891 µM) and 0.0924 µg/mL (≈ 0.218 µM), respectively. For the same molecule, the “(F) S. aureus (ATCC 29213) MIC” value in test [2] was 0.0526, μg/ml and 0.0902 μg/ml. For the same molecule, in test [4], the IC50 was less than 40 nM. For the same molecule, the EC50 in test [5] (Trypanosoma brucei) is 25.4 nM; in test [5] it was 17.3 nM; in test [7] (Cryptosporidium parvum), greater than 2000 nM.

Turning to `COc1cc(Cl)c(-c2nccc3nc(Cc4nc5nc(Cl)ccc5[nH]4)cn23)cc1OC` [Compound 2246, 2-({5-chloro-1H-imidazo[4,5-b]pyridin-2-yl}methyl)-5-(2-chloro-4,5-dimethoxyphenyl)imidazo[1,2-c]pyrimidine], the MIC in test [1] was determined as 0.115 µg/mL (≈ 0.253 µM); in test [2] it was 0.277 µg/mL (≈ 0.608 µM). In test [2], the “(F) S. aureus (ATCC 29213) MIC” value was 0.497 µg/mL. The IC50 in test [4] is 55.6 nM. For the same molecule, the EC50 in test [5] (Trypanosoma brucei) worked out at 6.68 nM; in test [5], 5.68 nM; in test [6] (Trypanosoma cruzi), 17.9 nM; in test [6], 20.6 nM; in test [7] (Cryptosporidium parvum), 359 nM; in test [7], 300 nM.

Turning to `COc1ccc(Cc2cn(Cc3nc4c(C)c(Cl)ccc4[nH]3)c(=O)n2CC(C)(C)O)c(Cl)c1` [Compound 2248, 4-[(2-chloro-4-methoxyphenyl)methyl]-1-[(5-chloro-4-methyl-1H-1,3-benzodiazol-2-yl)methyl]-3-(2-hydroxy-2-methylpropyl)-2,3-dihydro-1H-imidazol-2-one], in test [8], the “(I) E. faecium (ATCC 51559) MIC” value was 2.23 µg/mL. Also, the minimum inhibitory concentration (MIC) in test [8] was 1.98 µg/mL (≈ 4.05 µM). For the same molecule, the IC50 in test [4] is 40.8 nM. Besides, the EC50 is 81.8 nM in test [5] (Trypanosoma brucei), 491 nM in test [6] (Trypanosoma cruzi) and greater than 2000 nM in test [7] (Cryptosporidium parvum).

For `COc1ccc(-c2nccn3c(=S)n(Cc4nc5nc(Cl)ccc5[nH]4)cc23)c(Cl)c1` [Compound 2250, 2-({5-chloro-1H-imidazo[4,5-b]pyridin-2-yl}methyl)-8-(2-chloro-4-methoxyphenyl)-2H,3H-imidazo[1,5-a]pyrazine-3-thione], in test [8], the “(I) E. faecium (ATCC 51559) MIC” value turned out to be 1.01 µg/mL and the MIC was determined as 1.35 µg/mL (≈ 2.95 µM). In addition, the EC50 in test [5] (Trypanosoma brucei) was found to be 28.9 nM.

Turning to `COc1ccc(-c2cccc3c2CN(Cc2nc4nc(C)nc(N)c4[nH]2)C3=O)c(Cl)c1` [Compound 2251, 2-((6-amin0-2-methyl-7H-purin-8-yl)methyl)-4-(2-chloro-4-methoxyphenyl)isoindolin-1-one], the MIC in test [8] is greater than 4 µg/mL. Besides, the IC50 in test [4] was less than 40 nM. Also, the EC50 in test [5] (Trypanosoma brucei) is 166 nM; in test [6] (Trypanosoma cruzi) it was 811 nM; in test [7] (Cryptosporidium parvum), greater than 2000 nM.

Regarding `COc1ccc(-c2cccc3c2CN(Cc2nc4nc(C(F)(F)F)nc(N)c4[nH]2)C3=O)c(Cl)c1` [Compound 2252, 2-((6-amin0-2-(trifluoromethyl)-7H-purin-8-yl)methyl)-4-(2-chloro-4-methoxyphenyl)isoindolin-1-one], the MIC in test [1] is greater than 2 µg/mL. The IC50 in test [4] was 431 nM. For the same molecule, the EC50 amounted to 268 nM in test [5] (Trypanosoma brucei) and 630 nM in test [6] (Trypanosoma cruzi).

For `COc1cc(Cl)c(-c2nccc3nc(Cc4nc5c(Cl)c(Cl)ccc5[nH]4)cn23)cc1OC` [Compound 2255, 6,7-dichlor0-2-{[5-(2-chloro-4,5-dimethoxyphenyl)imidazo[1,2-c]pyrimidin-2-yl]methyl}-1H-1,3-benzodiazole], the MIC in test [1] and in test [2] was 1.82 µg/mL (≈ 3.72 µM) throughout. Also, in test [2], the “(F) S. aureus (ATCC 29213) MIC” value is 2.93 µg/mL. Besides, the IC50 in test [4] was determined as 277 nM. Further, the values for the EC50 in test [5] (Trypanosoma brucei), in test [6] (Trypanosoma cruzi) and in test [7] (Cryptosporidium parvum) were 71.5 nM, 165 nM and greater than 2000 nM, respectively.

Take `COc1ccc(-c2nccc3nc(Cc4nc5ccc(Cl)nc5[nH]4)cn23)c(Cl)c1` [Compound 2256, 2-({5-chloro-1H-imidazo[4,5-b]pyridin-2-yl}methyl)-5-(2-chloro-4-methoxyphenyl)imidazo[1,2-c]pyrimidine]: the “(G) MRSA (ATCC33591) MIC” value in test [1] worked out at 1.59 µg/mL. In addition, the MIC in test [1] was greater than 2 µg/mL. The EC50 in test [5] (Trypanosoma brucei) came out at 12.3 nM; in test [5] it was 20.3 nM; in test [6] (Trypanosoma cruzi), 76.5 nM; in test [6], 77.2 nM; in test [7] (Cryptosporidium parvum), 1940 nM.

As for `COc1ccc(Cc2cn(Cc3nc4nc(Br)ccc4[nH]3)c(=O)n2CC(F)F)c(Cl)c1` [Compound 2257, 1-({5-bromo-1H-imidazo[4,5-b]pyridin-2-yl}methyl)-4-[(2-chloro-4-methoxyphenyl)methyl]-3-(2,2-difluoroethyl)-2,3-dihydro-1H-imidazol-2-one], the MIC in test [1] was 0.876 µg/mL (≈ 1.71 µM). For the same molecule, the EC50 in test [6] (Trypanosoma cruzi) came out at 8.03 nM; in test [6] it was 8.17 nM; in test [7] (Cryptosporidium parvum), 310 nM; in test [7], 219 nM.

Broadly, the MIC is the smallest concentration in the dilution series that meets the test's criterion for growth inhibition. As usually defined, the IC50 is the concentration needed to halve the response being measured. The EC50 is the concentration giving half of the maximal effect.
